Values of other authors in US20030228375A1 (priority 2002, published 2003).
Read-outs that look alike come from different tables or passages of the source.

What was measured:
[1] = in vivo
[2] = supplementation
[3] = supplementation; remark: listed apart in the source
aromatase = molecular target: T1, aromatase (Homo sapiens, UniProt P11511); conditions: compared with chrysin, AG and ANG
T1 sequence (P11511 1-503): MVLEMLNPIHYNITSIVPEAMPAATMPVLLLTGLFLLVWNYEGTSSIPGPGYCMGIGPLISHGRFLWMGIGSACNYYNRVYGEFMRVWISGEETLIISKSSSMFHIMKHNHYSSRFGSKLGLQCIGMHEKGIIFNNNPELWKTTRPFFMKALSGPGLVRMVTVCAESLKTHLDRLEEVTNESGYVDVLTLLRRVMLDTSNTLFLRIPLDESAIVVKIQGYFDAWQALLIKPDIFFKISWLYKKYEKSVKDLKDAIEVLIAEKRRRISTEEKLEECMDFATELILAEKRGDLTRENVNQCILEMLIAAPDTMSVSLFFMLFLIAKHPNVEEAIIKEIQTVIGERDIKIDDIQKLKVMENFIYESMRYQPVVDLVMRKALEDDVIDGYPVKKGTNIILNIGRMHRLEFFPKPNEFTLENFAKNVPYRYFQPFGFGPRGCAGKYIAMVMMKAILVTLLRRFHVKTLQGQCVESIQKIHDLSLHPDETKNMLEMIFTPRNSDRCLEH

[4] = test system: people with panhypopituitarism
[5] = test system: prostate and seminal vesicle weights
hypogonadal men = conditions: for waking erection: Asian group; for sexual interest and activity, spontaneous erection: Caucasian group
healthy young men = conditions: 300 mg/wk for six weeks; TE shoulders, ND shoulders and chest
HIV-infected men = conditions: pharmacological doses
[6] = nandrolone use
patients on dialysis = conditions: compared with placebo
[7] = body builders

## C[C@]12CC[C@H]3[C@@H](CCC4=C[C@@H](O)CC[C@@]43C)[C@@H]1CC[C@@H]2O [4-androstenediol]
[1]
  human serum testosterone levels: elevations in human serum testosterone levels
[2]
  urine testosterone concentration relative to 4-androstenedione: 10 fold

## C[C@]12CCC(=O)C=C1CC[C@@H]1[C@@H]2CC[C@]2(C)C(=O)CC[C@@H]12 [4-androstenedione]
[3]
  serum testosterone: elevations in serum testosterone

## C[C@]12CC[C@H]3[C@@H](CC=C4C[C@@H](O)CC[C@@]43C)[C@@H]1CC[C@@H]2O [5-androstenediol]
Young female rats
  proportion of protein in the body composition: increased the proportion of protein

## COc1ccc(-c2coc3cc(O)cc(O)c3c2=O)cc1 [Biochanin A, 5,7-dihydroxy-4′-methoxyisoflavone]
aromatase
  aromatase inhibition: inhibited aromatase, but to a lesser degree

## C[C@]12CC[C@H](O)CC1=CC[C@@H]1[C@@H]2CC[C@]2(C)C(=O)CC[C@@H]12 [DHEA, dehydro-epiandrosterone]
[4]; 50 mg dose
  plasma testosterone: restored plasma testosterone to levels similar to those observed in young women
[4]; 50 mg or 200 mg
  plasma estrogens, particularly estradiol: significant and dose dependent increase
[4]; 200 mg dose
  plasma testosterone: slightly below the levels observed in normal men

## C[C@@H]1CC2=CC(=O)CC[C@@H]2[C@H]2CC[C@]3(C)[C@@H](O)CC[C@H]3[C@@H]21 [MENT, 7α-methyl-19-nor-testosterone]
[5]
  androgenic potency relative to testosterone: four- to five-times more androgenic than testosterone
Hypogonadal men
  waking erection: increased waking erection
  sexual interest and activity, spontaneous erection: significant increases
Levator ani muscles
  anabolic potency relative to testosterone: ten-times as potent as testosterone

## CCCCCCCCCC(=O)O[C@H]1CC[C@H]2[C@@H]3CCC4=CC(=O)CC[C@@H]4[C@H]3CC[C@]12C [ND, 19-nor-testosterone decanoate]
Healthy young men
  body circumferences (of fifteen): significant increases
HIV-infected men
  total weight, lean body mass, body cell mass, muscle size and strength: significant gains

## CCCCCCC(=O)O[C@H]1CC[C@H]2[C@@H]3CCC4=CC(=O)CC[C@]4(C)[C@H]3CC[C@]12C [TE, testosterone enanthate]
Hypogonadal men
  waking erection: increased waking erection
  sexual interest and activity, spontaneous erection: significant increases
Healthy young men
  body circumferences (of fifteen): significant increases

## C[C@]12CC[C@H]3[C@@H](CCC4=CC(=O)CC[C@@H]43)[C@@H]1CC[C@@H]2O [nandrolone, 19-nor-testosterone]
[6]
  effect on sperm: azoospermia
Patients on dialysis
  lean body mass: increased significantly
Young female rats
  energy expenditure: increased energy expenditure
[7]
  decrease in HDL-cholesterol: 25-27%

## C[C@]12CC[C@H]3[C@@H](CCC4=CC(=O)CC[C@@]43C)[C@@H]1CC[C@@H]2O [testosterone]
Young female rats
  proportion of protein in the body composition: increased the proportion of protein
